Reference: patent US12590062B2, “PD-1/PD-L1 inhibitors” (Gilead Sciences, Inc., priority 2017, dated 2026)

Target: T1, PD-1/PD-L1 interaction (Homo sapiens, UniProt Q9NZQ7)
T1 construct: expressed in transfected cells; host or cells: CHO cells (aAPC-PD-L1) co-cultured with Jurkat cells overexpressing PD-1 and an NFAT-luciferase reporter
Assay: PD-1/PD-L1 NFAT reporter co-culture assay
Assay type: cell-based
Settings: Jurkat PD-1 NFAT-luciferase cells co-cultured with aAPC-PD-L1 CHO cells, 6 hrs at 37° C.; read-out: EC50 NFAT Luciferase
Procedure: PD-1/PD-L1 NEAT Reporter Assay:
Compounds were tested in afunctional co-culture reporter assay in which TCR-mediated NFAT activity is inhibited by the engagement of PD-1 with PD-L1. […] CHO cells expressing surface-bound anti-CD3 antibodies and PD-L1 (artificial antigen presenting cells, aAPC-PD-L1) were first seeded overnight. Jurkat cells overexpressing PD-1 and expressing a luciferase construct under NFAT control are diluted in RPMI assay medium (RPMI 1640 with 2% FBS), mixed with compounds, and immediately seeded on the monolayer of aAPC-PD-L1. The co-culture is then incubated for 6 hrs at 37° C. Luciferase activity is assessed by adding the ONE-Glo reagent and measuring luminescence with a plate reader. EC50 values are calculated from the fit of the dose-response curves to a four-parameter equation (Table 3).

T1 sequence (Q9NZQ7 19-290): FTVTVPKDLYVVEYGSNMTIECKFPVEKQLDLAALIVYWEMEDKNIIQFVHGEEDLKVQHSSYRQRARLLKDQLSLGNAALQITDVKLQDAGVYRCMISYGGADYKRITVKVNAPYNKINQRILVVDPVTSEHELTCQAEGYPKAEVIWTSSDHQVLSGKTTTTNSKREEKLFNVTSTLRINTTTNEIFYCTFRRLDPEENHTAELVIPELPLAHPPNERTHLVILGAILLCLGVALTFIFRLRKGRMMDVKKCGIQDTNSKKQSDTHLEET

| EC50 [nM] | Compound |
| --- | --- |
| ≥ 50000 | COc1nc(OCc2cccc(-c3cccc(COc4nc(OC)c(CNCC(C)(C)C(=O)O)cc4Cl)c3C)c2C)c(Cl)cc1CNCC(C)(C)C(=O)O [Example 77, 3,3′-((((((2,2′-dimethyl-[1,1′-biphenyl]-3,3′-diyl)bis(methylene))bis(oxy))bis(5-chloro-2-methoxypyridine-6,3-diyl))bis(methylene))bis(azanediyl))bis(2,2-dimethylpropanoic acid)] |
| 381 | COc1nc(OCc2cccc(-c3cccc(COc4nc(OC)c(CN[C@@H]5CCC[C@@H]5C(=O)O)cc4Cl)c3C)c2C)c(Cl)cc1CN[C@@H]1CCC[C@@H]1C(=O)O [Example 79, (1S,1′S,2R,2′R)-2,2′-((((((2,2′-dimethyl-[1,1′-biphenyl]-3,3′-diyl)bis(methylene))bis(oxy))bis(5-chloro-2-methoxypyridine-6,3-diyl))bis(methylene))bis(azanediyl))bis(cyclopentane-1-carboxylicacid)] |
| ≥ 50000 | COc1nc(OCc2cccc(-c3cccc(COc4nc(OC)c(CN[C@H]5CCCC[C@@H]5C(=O)O)cc4Cl)c3C)c2C)c(Cl)cc1CN[C@H]1CCCC[C@@H]1C(=O)O [Example 80, (1S,1′S,2S,2′S)-2,2′-((((((2,2′-dimethyl-[1,1′-biphenyl]-3,3′-diyl)bis(methylene))bis(oxy))bis(5-chloro-2-methoxypyridine-6,3-diyl))bis(methylene))bis(azanediyl))bis(cyclohexane-1-carboxylic acid)] |
| 1710 | COc1nc(OCc2cccc(-c3cccc(COc4nc(OC)c(CNC(C)(C)CC(=O)O)cc4Cl)c3C)c2C)c(Cl)cc1CNC(C)(C)CC(=O)O [Example 82, 3,3′-((((((2,2′-dimethyl-[1,1′-biphenyl]-3,3′-diyl)bis(methylene))bis(oxy))bis(5-chloro-2-methoxypyridine-6,3-diyl))bis(methylene))bis(azanediyl))bis(3-methylbutanoic acid)] |
| 1680 | COc1nc(OCc2cccc(-c3cccc(COc4nc(OC)c(CNC(C)C(=O)N(C)C)cc4Cl)c3C)c2C)c(Cl)cc1CNC(C)C(=O)N(C)C (stereo not shown) [Example 83, 2,2′-((((((2,2′-dimethyl-[1,1′-biphenyl]-3,3′-diyl)bis(methylene))bis(oxy))bis(5-chloro-2-methoxypyridine-6,3-diyl))bis(methylene))bis(azanediyl))bis(N,N-dimethylpropanamide)] |
| 9770 | COc1nc(OCc2cccc(-c3cccc(COc4nc(OC)c(CNC56CC(C(=O)O)(C5)C6)cc4Cl)c3C)c2C)c(Cl)cc1CNC12CC(C(=O)O)(C1)C2 [Example 85, 3,3′-((((((2,2′-dimethyl-[1,1′-biphenyl]-3,3′-diyl)bis(methylene))bis(oxy))bis(5-chloro-2-methoxypyridine-6,3-diyl))bis(methylene))bis(azanediyl))bis(bicyclo[1.1.1]pentane-1-carboxylic acid)] |
| ≥ 50000 | COc1nc(OCc2cccc(-c3cccc(COc4nc(OC)c(CN[C@H](C(=O)O)c5ccccc5)cc4Cl)c3C)c2C)c(Cl)cc1CN[C@H](C(=O)O)c1ccccc1 [Example 86, (2S,2′S)-2,2′-((((((2,2′-dimethyl-[1,1′-biphenyl]-3,3′-diyl)bis(methylene))bis(oxy))bis(5-chloro-2-methoxypyridine-6,3-diyl))bis(methylene))bis(azanediyl))bis(2-phenylacetic acid)] |
| ≥ 50000 | COc1nc(OCc2cccc(-c3cccc(COc4nc(OC)c(CNC5(C(=O)O)COC5)cc4Cl)c3C)c2C)c(Cl)cc1CNC1(C(=O)O)COC1 [Example 87, 3,3′-((((((2,2′-dimethyl-[1,1′-biphenyl]-3,3′-diyl)bis(methylene))bis(oxy))bis(5-chloro-2-methoxypyridine-6,3-diyl))bis(methylene))bis(azanediyl))bis(oxetane-3-carboxylic acid)] |
| 4150 | CNC(=O)[C@H](C)NCc1cc(Cl)c(OCc2cccc(-c3cccc(COc4nc(OC)c(CN[C@@H](C)C(=O)NC)cc4Cl)c3C)c2C)nc1OC [Example 88, (2S,2′S)-2,2′-((((((2,2′-dimethyl-[1,1′-biphenyl]-3,3′-diyl)bis(methylene))bis(oxy))bis(5-chloro-2-methoxypyridine-6,3-diyl))bis(methylene))bis(azanediyl))bis(N-methylpropanamide)] |
| 670 | COC(=O)[C@@H](C)NCc1cc(Cl)c(OCc2cccc(-c3cccc(COc4nc(OC)c(CN[C@H](C)C(=O)OC)cc4Cl)c3C)c2C)nc1OC [Example 89, Dimethyl 2,2′-((((((2,2′-dimethyl-[1,1′-biphenyl]-3,3′-diyl)bis(methylene))bis(oxy))bis(5-chloro-2-methoxypyridine-6,3-diyl))bis(methylene))bis(azanediyl))(2R,2′R)-dipropionate] |
| 639 | Cc1c(COc2cc(OCc3cncc(C#N)c3)c(CN[C@@H](C)C(=O)O)cc2Cl)cccc1-c1cccc(-c2ccc(OCCN[C@@H](C)C(=O)O)c(C(F)(F)F)c2)c1C [Example 95, (4-((4″-(2-(((S)-1-carboxyethyl)amino)ethoxy)-2,2′-dimethyl-3″-(trifluoromethyl)-[1,1′:3′,1″-terphenyl]-3-yl)methoxy)-5-chloro-2-((5-cyanopyridin-3-yl)methoxy)benzyl)-L-alanine] |
| 912 | COc1nc(OCc2cccc(-c3cccc(COc4nc(OC)c(CNC(C)(C)C(=O)O)cc4Cl)c3C)c2C)c(Cl)cc1CN [Example 96, 2-(((6-((3′-(((5-(aminomethyl)-3-chloro-6-methoxypyridin-2-yl)oxy)methyl)-2,2′-dimethyl-[1,1′-biphenyl]-3-yl)methoxy)-5-chloro-2-methoxypyridin-3-yl)methyl)amino)-2-methylpropanoic acid] |
| 28 | COc1nc(OCc2cccc(-c3cccc(COc4nc(OC)c(CNC(C)(C)C(=O)O)cc4Cl)c3C)c2C)c(Cl)cc1CNC(C)(C)C(=O)O [Example 97, 2,2′-((((((2,2′-dimethyl-[1,1′-biphenyl]-3,3′-diyl)bis(methylene))bis(oxy))bis(5-chloro-2-methoxypyridine-6,3-diyl))bis(methylene))bis(azanediyl))bis(2-methylpropanoic acid)] |
| 70 | COc1nc(OCc2cccc(-c3cccc(COc4nc(OC)c(CN[C@@H](C)C(=O)O)cc4Cl)c3C)c2C)c(Cl)cc1CN[C@@H](C)C(=O)O [Example 98, (2S,2′S)-2,2′-((((((2,2′-dimethyl-[1,1′-biphenyl]-3,3′-diyl)bis(methylene))bis(oxy))bis(5-chloro-2-methoxypyridine-6,3-diyl))bis(methylene))bis(azanediyl))dipropionic acid] |
| 157 | CC[C@@H](NCc1cc(Cl)c(OCc2cccc(-c3cccc(COc4nc(OC)c(CN[C@H](CC)C(=O)O)cc4Cl)c3C)c2C)nc1OC)C(=O)O [Example 99, (2R,2′R)-2,2′-((((((2,2′-dimethyl-[1,1′-biphenyl]-3,3′-diyl)bis(methylene))bis(oxy))bis(5-chloro-2-methoxypyridine-6,3-diyl))bis(methylene))bis(azanediyl))dibutyric acid] |
| 482 | COC(=O)[C@H](C)NCc1cc(Cl)c(OCc2cccc(-c3cccc(COc4nc(OC)c(CN[C@@H](C)C(=O)OC)cc4Cl)c3C)c2C)nc1OC [Example 100, Dimethyl 2,2′-((((((2,2′-dimethyl-[1,1′-biphenyl]-3,3′-diyl)bis(methylene))bis(oxy))bis(5-chloro-2-methoxypyridine-6,3-diyl))bis(methylene))bis(azanediyl))(2S,2′S)-dipropionate] |
